The test concerns the target T1, Alpha-1A adrenergic receptor (Homo sapiens, UniProt P35348).
T1 sequence (P35348 whole entry): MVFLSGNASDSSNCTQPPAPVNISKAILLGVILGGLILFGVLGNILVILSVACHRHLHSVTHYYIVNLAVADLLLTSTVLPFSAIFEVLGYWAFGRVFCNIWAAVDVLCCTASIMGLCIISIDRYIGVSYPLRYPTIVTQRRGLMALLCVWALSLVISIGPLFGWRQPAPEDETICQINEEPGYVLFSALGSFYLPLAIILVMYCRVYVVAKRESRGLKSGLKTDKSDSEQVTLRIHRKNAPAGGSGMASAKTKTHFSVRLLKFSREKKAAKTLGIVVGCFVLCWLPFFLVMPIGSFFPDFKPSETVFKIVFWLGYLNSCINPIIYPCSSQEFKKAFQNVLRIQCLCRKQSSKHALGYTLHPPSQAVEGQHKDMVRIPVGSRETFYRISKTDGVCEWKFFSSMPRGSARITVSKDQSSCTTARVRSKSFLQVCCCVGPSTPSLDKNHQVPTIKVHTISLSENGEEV
The test is described as follows: Binding affinity to Homo sapiens (human) alpha1A adrenergic receptor.

One may read the Ki as the equilibrium dissociation constant of an inhibitor or competing ligand from its target. The low end stands for a stronger hold on the target, the high end for a looser hold on the target.

`CCC1=C(C(N)=O)C(c2ccc([N+](=O)[O-])cc2)C(C(=O)NCCCN2CCC(c3ccccc3)(c3ccccc3)CC2)=C(CC)N1` (stereo unspecified) came in with a Ki of 1.1 nM.
